The test system of assay [1] is rNsp5^E166Q recombinant SARS-CoV-2. It counts as cell-based.
Assay [2] has as its target Mpro G15S, T21I, L89F, K90R, P108S, P132H, and L205V. The note with it: cited from earlier work.
Assay [3] relates to top nine high-frequency mutants at residue N142. It counts as biochemical, SARS-CoV-2.
In a further assay the test system is Mpro H172Y. The note with it: cited from earlier work.
The test system of assay [4] is rNsp5^S144A recombinant SARS-CoV-2. The assay is classed as cell-based.
The test system of assay [5] is rNsp5^H172Y recombinant SARS-CoV-2. It counts as cell-based.
Assay [6] concerns rNsp5^S144M recombinant SARS-CoV-2. It counts as cell-based.
The subject of assay [7] is Mpro M49I, M49T, M49L, and M49V. The assay is classed as biochemical, SARS-CoV-2.
For assay [8], the system named is rNsp5^H172Q recombinant SARS-CoV-2. It counts as cell-based.
A further assay deals with Mpro S144A. The note with it: cited from earlier work.
Another assay concerns eight Q189 mutants. The assay is classed as biochemical, SARS-CoV-2.
The subject of assay [9] is Mpro Q192T, Q192S, Q192L, Q192A, Q192I, Q192P, Q192H, Q192V, Q192W, Q192C, and Q192F. It counts as biochemical, SARS-CoV-2.

Results on 2 molecules are retold here after article PMC10451032 (ACS Central Science, 2023).

The term EC50 denotes the concentration giving half of the maximal effect.

Regarding `CC(C)(C)[C@H](NC(=O)C(F)(F)F)C(=O)N1C[C@H]2[C@@H]([C@H]1C(=O)N[C@H](C#N)C[C@@H]1CCNC1=O)C2(C)C` [nirmatrelvir], the EC50 in [1] came out at 69.7 nM; in [4], 127 nM; in [5], 378 ± 10.2 nM; in assay [6], 87.1 ± 3.06 nM; in [8] it was 133 ± 2.86 nM. Moreover, the “EC50 fold increase compared to rNsp5^WT” value turned out to be 2.7 fold in assay [1], 5.0 fold in [4], 3.4 fold in assay [6] and 5.2 fold in assay [8]. Also, in assay [2], the “IC50 or Ki value shifts” value is reported as less than 2 fold. In addition, the “change in IC50 vs WT” value in [3] is listed as less than 3.5 fold; in [7], less than 3 fold; in the assay on eight Q189 mutants, less than 3.1 fold. The “increase in Ki” value in the assay on Mpro H172Y is 233 fold. Further, the Ki increase on Mpro S144A is given as 91.9 fold.

As to `CC(C)C[C@H](NC(=O)OCc1ccccc1)C(=O)N[C@@H](CC1CCNC1=O)C(O)S(=O)(=O)[O-].[Na+]` (stereo partly shown) [GC-376], the “Cross-resistance (fold vs WT)” value in [9] was more than 7.7 fold.
